Legend:
[1] = acute toxicity: 50% lethal dose (LD50) by oral administration to mice; settings: mouse, in vivo
blood sugar = assay: blood sugar-lowering test: oral administration to mice prior to subcutaneous injection of glucose (one g/kg); type: in vivo; settings: 100 mg/kg required; same conditions (mice, oral, s.c. glucose one g/kg)
adrenergic β1 -receptor = settings: known compounds, U.S. Pat. 3869474 and Offenlegungsschrift 2420427; cited from earlier work
blood-pressure = settings: known cardiotonic compounds, U.S. Pat. 3869474 and Offenlegungsschrift 2420427; cited from earlier work

Row | SMILES | LD50 [1] | decrease in the blood sugar (blood sugar) | activation of adrenergic β1-receptor (adrenergic β1 -receptor) | influence upon blood-pressure (blood-pressure)
1 | COc1ccc(CCNCC(O)c2ccccc2OC)cc1OC (racemic) [dl-α-(3,4-dimethoxyphenethylaminomethyl)-2-methoxybenzylalcohol] | ~580 mg/kg |  |  | 
2 | N=C(N)NC(=N)NCCc1ccccc1 [Phenformin, 1-phenethylbiguanide] |  | ~30% |  | 
3 | COc1cc(CCNCC(O)c2ccc(O)c(O)c2)cc(OC)c1OC (stereo not drawn) [α-(3,4,5-trimethoxyphenethylaminomethyl)-3,4-dihydroxybenzylalcohol] |  |  | selective activation | no substantial influence
4 | COc1ccc(CCNCC(O)c2ccc(O)c(O)c2)cc1OC (stereo not drawn) [α-(3,4-dimethoxyphenethylaminomethyl)-3,4-dihydroxybenzylalcohol] |  |  | selective activation | no substantial influence

Reference: patent US4131686A, “Novel benzylalcohol derivatives and processes for preparing the same” (Tanabe Seiyaku Co., Ltd., priority 1975, dated 1978)
